Test results from ChEMBL document CHEMBL1152268, “Discovery and SAR of novel 4-thiazolyl-2-phenylaminopyrimidines as potent inhibitors of spleen tyrosine kinase (SYK)” (Bioorg Med Chem Lett, 2008).
The source made the active and inactive calls. The rule behind the calls is not given here.

Key:
[1] = target: Tyrosine-protein kinase SYK (Homo sapiens, UniProt P43405)
[2] = test system: Liver microsomes; assay: (§1) Metabolic stability in rat liver microsomes after 30 mins; assay type: ADME, Microsome; settings: microsomes, 0.5 h
[3] = target: T1, Tyrosine-protein kinase ZAP-70 (Homo sapiens, UniProt P43403); assay: (§2) Inhibition of ZAP70
T1 sequence (P43403 whole entry): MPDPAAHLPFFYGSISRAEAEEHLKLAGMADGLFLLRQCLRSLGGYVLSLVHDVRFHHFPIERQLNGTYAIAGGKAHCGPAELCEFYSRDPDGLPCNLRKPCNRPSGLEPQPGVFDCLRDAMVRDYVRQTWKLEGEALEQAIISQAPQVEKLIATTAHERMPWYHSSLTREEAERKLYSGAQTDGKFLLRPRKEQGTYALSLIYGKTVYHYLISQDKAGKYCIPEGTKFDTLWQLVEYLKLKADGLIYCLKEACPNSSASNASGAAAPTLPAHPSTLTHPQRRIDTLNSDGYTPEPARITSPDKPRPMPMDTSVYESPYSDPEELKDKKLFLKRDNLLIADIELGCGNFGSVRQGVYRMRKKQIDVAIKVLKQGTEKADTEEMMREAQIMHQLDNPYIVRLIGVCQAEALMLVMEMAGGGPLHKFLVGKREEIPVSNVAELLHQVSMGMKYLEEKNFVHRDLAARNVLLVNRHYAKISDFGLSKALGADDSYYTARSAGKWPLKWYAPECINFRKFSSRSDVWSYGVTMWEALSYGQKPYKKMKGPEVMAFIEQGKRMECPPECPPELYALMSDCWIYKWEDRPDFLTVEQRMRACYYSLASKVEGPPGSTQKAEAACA

[4] = target: Proto-oncogene tyrosine-protein kinase Src (Homo sapiens, UniProt P12931); assay: Inhibition of SRC
[5] = target: Cyclin-dependent kinase 2 (Homo sapiens, UniProt P24941); assay: Inhibition of CDK2
[6] = as §1; assay type: ADME, Microsome; settings: liver microsomes, read-out: Stability
[7] = target: T2, Tyrosine-protein kinase ZAP-70 (Homo sapiens) (UniProt P43403); assay: as §2
T2 sequence (whole entry): T1 sequence (P43403 whole entry)

Proto-oncogene tyrosine-protein kinase Src, sequence (P12931 2-536 limits assumed): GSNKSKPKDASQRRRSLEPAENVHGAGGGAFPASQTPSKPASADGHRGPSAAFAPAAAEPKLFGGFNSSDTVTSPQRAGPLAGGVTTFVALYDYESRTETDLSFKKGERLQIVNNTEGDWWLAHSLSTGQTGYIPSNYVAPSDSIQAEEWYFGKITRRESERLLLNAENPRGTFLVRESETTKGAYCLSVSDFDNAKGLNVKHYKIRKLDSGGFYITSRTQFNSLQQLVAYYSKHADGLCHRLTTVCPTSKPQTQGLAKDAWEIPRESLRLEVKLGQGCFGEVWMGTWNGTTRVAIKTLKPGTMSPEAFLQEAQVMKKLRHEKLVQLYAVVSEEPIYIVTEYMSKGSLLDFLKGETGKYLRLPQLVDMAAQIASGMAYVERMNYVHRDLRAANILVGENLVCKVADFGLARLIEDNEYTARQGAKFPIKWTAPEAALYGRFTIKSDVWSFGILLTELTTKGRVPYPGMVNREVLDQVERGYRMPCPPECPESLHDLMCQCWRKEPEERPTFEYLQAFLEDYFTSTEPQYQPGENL

Compound | IC50 [1] [nM] | Activity [2] | Ki [1] [nM] | Ki [3] [nM] | Ki [4] [nM] | Ki [5] [nM] | remaining at 0.5 h [6] [%] | Activity [7] | Activity
NCCCNc1nc(-c2ccc(N3CCOCC3)cc2)cc2ccccc12 | 8 |  |  |  |  |  |  |  | 
Oc1cc(Nc2nccc(-c3nccs3)n2)cc(C(F)(F)F)c1 |  |  | 44 | 754 | 991 | 1650 | 24 |  | 
Cc1ccc(C)c(Nc2nccc(-c3nccs3)n2)c1 |  | Not Active | 1820 |  | 153 | > 5000 |  | inactive | inactive
COc1cc(Nc2nccc(-c3nccs3)n2)cc(C(F)(F)F)c1 |  |  | 28 | 2150 | 1830 | > 5000 | 54 |  | 
COc1cc(Nc2nccc(-c3nc(CO)cs3)n2)cc(C(F)(F)F)c1 |  | Not Active | 33 | 1000 | 3500 | > 2500 |  |  | 
Cc1cc(C)cc(Nc2nccc(-c3nc(C)cs3)n2)c1 |  | 5% | 56 | 1030 | 2030 | 100 |  |  | 
Cc1cc(C)cc(Nc2nccc(-c3nc(C)c(CCO)s3)n2)c1 |  |  | 32 | 560 | 3500 | 2270 | 65 |  | 
Cc1cc(C)cc(Nc2nccc(-c3nc(C)c(C(=O)N[C@H](C)CO)s3)n2)c1 |  |  | 210 | 1500 | > 3330 | > 3330 |  |  | 
OCc1csc(-c2ccnc(Nc3cc(O)cc(C(F)(F)F)c3)n2)n1 |  |  | 50 | 680 | 4000 | 1500 | 50 |  | 
Cc1cc(C)cc(Nc2nccc(-c3nc(C)c(C(=O)N[C@@H](C)CO)s3)n2)c1 |  |  |  | 240 | > 3330 | > 3330 |  |  | 
Cc1cc(Nc2nccc(-c3nccs3)n2)cc(C(F)(F)F)c1 |  | Not Active | 110 | 891 | 1360 | > 5000 |  |  | 
Cc1cccc(Nc2nccc(-c3nccs3)n2)c1 |  | Not Active | 82 | 1550 | 2980 | 2450 |  |  | 
c1ccc(Oc2cccc(Nc3nccc(-c4nccs4)n3)c2)cc1 |  |  | 630 |  |  |  |  |  | 

The next lines start with the values.

IC50 [1] [nM] | Activity [2] | Ki [1] [nM] | Ki [3] [nM] | Ki [4] [nM] | Ki [5] [nM] | remaining at 0.5 h [6] [%] | Activity [7] | Activity | Compound
 | Not Active | 23 | 1140 | 3700 | > 2500 |  |  |  | COc1cc(Nc2nccc(-c3ncc(C)s3)n2)cc(C(F)(F)F)c1
 |  | 8 | 419 | 1060 | > 5000 | 24 |  |  | Cc1cc(C)cc(Nc2nccc(-c3nccs3)n2)c1
 |  | 10 | 750 | 1800 | 1500 | 64 |  |  | Cc1cc(Nc2nccc(-c3nc(CO)cs3)n2)cc(C(F)(F)F)c1
 |  | 14 | 318 | 862 | > 5000 | 12 |  |  | COc1cc(Nc2nccc(-c3nccs3)n2)cc(OC)c1
 |  | 26 | 677 | 422 | > 5000 | 68 |  |  | OCCCOc1cc(Nc2nccc(-c3nccs3)n2)cc(C(F)(F)F)c1
 |  | 10 | 450 | 2230 | 2400 | 35 |  |  | Cc1cc(C)cc(Nc2nccc(-c3nc(CO)cs3)n2)c1
 |  | 4 | 270 | 2000 | > 2500 | 37 |  |  | Cc1cc(C)cc(Nc2nccc(-c3ncc(CO)s3)n2)c1
 |  | 22 | 3500 | 3500 | > 2500 | 80 |  |  | Cc1cc(Nc2nccc(-c3nc(C)c(CCO)s3)n2)cc(C(F)(F)F)c1
 | 15% | 23 | 410 | 348 | 1100 |  |  |  | Cc1cc(C)cc(Nc2nccc(-c3ncc(C)s3)n2)c1
